Experimental data published in ChEMBL document CHEMBL1201862, “PubChem BioAssay data set” (2004).
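Grown in 96-well plates, cells were treated for 48 hours with each compound at five concentrations. Insufficient inhibition: endpoint recorded as highest concentration tested. GI50: concentration for 50% inhibition of growth.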 Activity calls are given as the source filed them. Rule as the data show it: active = GI50 up to about 1.1 µM and inactive = higher.

Experiments:
Test in all cases: inhibition of tumour cell growth, NCI panel, 48 h
A498 = tested on: A498
CAKI-1 = tested on: CAKI-1
COLO 205 = tested on: COLO 205
DU-145 = tested on: DU-145
HCC 2998 = tested on: HCC 2998
HCT-116 = tested on: HCT-116
Hs-578T = tested on: Hs-578T
IGROV-1 = tested on: IGROV-1
KM12 = tested on: KM12
MDA-MB-435 = tested on: MDA-MB-435
MOLT-4 = tested on: MOLT-4
Malme-3M = tested on: Malme-3M
NCI-H460 = tested on: NCI-H460
OVCAR-8 = tested on: OVCAR-8
RXF 393 = tested on: RXF 393
SF-539 = tested on: SF-539
SK-OV-3 = tested on: SK-OV-3
SN12C = tested on: SN12C
SNB-19 = tested on: SNB-19
SW-620 = tested on: SW-620

Measured: GI50

O/N=N/c1ccccn1.OCC1OC2OC3C(CO)OC(OC4C(CO)OC(OC5C(CO)OC(OC6C(CO)OC(OC7C(CO)OC(OC1C(O)C2O)C(O)C7O)C(O)C6O)C(O)C5O)C(O)C4O)C(O)C3O (stereo not given)
inactive: A498 > 100 µM | CAKI-1 > 100 µM | COLO 205 > 100 µM | DU-145 > 100 µM | HCC 2998 > 100 µM | HCT-116 41.6 µM | Hs-578T > 100 µM | IGROV-1 > 100 µM | KM12 82.4 µM | MDA-MB-435 19.2 µM | MOLT-4 > 100 µM | Malme-3M 61 µM | NCI-H460 68.7 µM | OVCAR-8 > 100 µM | RXF 393 > 100 µM | SF-539 52.8 µM | SK-OV-3 > 100 µM | SN12C > 100 µM | SNB-19 63.7 µM | SW-620 42.1 µM

CC1CC(C)CN(S(=O)(=O)c2cc(Cl)c(Oc3ccc([N+](=O)[O-])cc3Cl)c(Cl)c2)C1 (stereo not given)
inactive: A498 > 100 µM | CAKI-1 > 100 µM | COLO 205 > 100 µM | DU-145 > 100 µM | HCC 2998 > 100 µM | HCT-116 > 100 µM | Hs-578T > 100 µM | IGROV-1 > 100 µM | KM12 > 100 µM | MDA-MB-435 > 100 µM | MOLT-4 > 100 µM | Malme-3M > 100 µM | NCI-H460 > 100 µM | OVCAR-8 > 100 µM | RXF 393 > 100 µM | SF-539 > 100 µM | SK-OV-3 > 100 µM | SN12C > 100 µM | SNB-19 > 100 µM | SW-620 > 100 µM

N#Cc1cc(C#N)c(N)nc1N
inactive: A498 > 100 µM | CAKI-1 > 100 µM | COLO 205 > 100 µM | DU-145 43.6 µM | HCC 2998 > 100 µM | HCT-116 > 100 µM | Hs-578T > 100 µM | IGROV-1 > 100 µM | KM12 > 100 µM | MDA-MB-435 > 100 µM | MOLT-4 > 100 µM | Malme-3M > 100 µM | NCI-H460 > 100 µM | OVCAR-8 > 100 µM | RXF 393 > 100 µM | SF-539 > 100 µM | SK-OV-3 > 100 µM | SN12C > 100 µM | SNB-19 > 100 µM | SW-620 > 100 µM

CSc1c(C(N)=S)c(N)nn1-c1ccccc1
inactive: A498 > 100 µM | CAKI-1 > 100 µM | COLO 205 > 100 µM | DU-145 > 100 µM | HCC 2998 > 100 µM | HCT-116 > 100 µM | Hs-578T > 100 µM | IGROV-1 > 100 µM | KM12 > 100 µM | MDA-MB-435 > 100 µM | MOLT-4 > 100 µM | Malme-3M > 100 µM | NCI-H460 > 100 µM | OVCAR-8 > 100 µM | RXF 393 > 100 µM | SF-539 > 100 µM | SK-OV-3 > 100 µM | SN12C > 100 µM | SNB-19 > 100 µM | SW-620 > 100 µM

O=c1[nH]c(=O)n(C2OC(CO)C(O)C2O)cc1OCCc1ccccc1 (stereo not given)
inactive: A498 > 100 µM | CAKI-1 > 100 µM | COLO 205 > 100 µM | DU-145 > 100 µM | HCC 2998 > 100 µM | HCT-116 > 100 µM | Hs-578T > 100 µM | IGROV-1 > 100 µM | KM12 > 100 µM | MDA-MB-435 > 100 µM | MOLT-4 > 100 µM | Malme-3M > 100 µM | NCI-H460 > 100 µM | OVCAR-8 > 100 µM | RXF 393 > 100 µM | SF-539 > 100 µM | SK-OV-3 > 100 µM | SN12C > 100 µM | SNB-19 > 100 µM | SW-620 > 100 µM

COc1ccc(CC(COS(=O)(=O)c2ccc(C)cc2)NS(=O)(=O)c2ccc(C)cc2)cc1 (stereo not given)
inactive: A498 12.8 µM | CAKI-1 17.4 µM | COLO 205 11.7 µM | DU-145 10.8 µM | HCC 2998 11.9 µM | HCT-116 12.8 µM | Hs-578T 15.6 µM | IGROV-1 7.87 µM | KM12 16.9 µM | MDA-MB-435 13.9 µM | MOLT-4 > 100 µM | Malme-3M 10.7 µM | NCI-H460 11.5 µM | OVCAR-8 15.3 µM | RXF 393 3.27 µM | SF-539 17.1 µM | SK-OV-3 15.2 µM | SN12C 15.4 µM | SNB-19 12.6 µM | SW-620 10.9 µM
